Reference: paper PMC5218480 (PLoS ONE, 2017)

Tested on: MV-4-11 cells
Assay: Gene expression microarray analysis (Affymetrix PrimeView) and GSEA
Format: cell-based, human
Design: RFU PODN (11730768_x_at) / Fold change /veh PODN (11730768_x_at) / RFU LINC00158 (11744669_a_at) / Fold change /veh LINC00158 (11744669_a_at) / RFU DUSP10 (11751237_a_at) / Fold change /veh DUSP10 (11751237_a_at) / RFU ID3 (11757404_x_at) / Fold change /veh ID3 (11757404_x_at) / RFU PLEKHG5 (11737974_s_at) / Fold change /veh PLEKHG5 (11737974_s_at) / RFU LRRC4B (11730491_at) / Fold change /veh LRRC4B (11730491_at) / RFU GIMAP4 (11747438_a_at) / Fold change /veh GIMAP4 (11747438_a_at) / RFU KRT8 (11758183_x_at) / Fold change /veh KRT8 (11758183_x_at) / RFU CNN1 (11734310_a_at) / Fold change /veh CNN1 (11734310_a_at) / RFU VPS37D (11726825_at) / Fold change /veh VPS37D (11726825_at) / RFU C10orf10 (11716522_x_at) / Fold change /veh C10orf10 (11716522_x_at) / RFU KIR2DL2 /// KIR2DL4 /// KIR2DL5A /// KIR2DL5B /// KIR2DS1 /// KIR2DS2 /// KIR2DS3 /// KIR2DS4 /// KIR3DL3 /// KIR3DL3 /// KIR3DS1 (11738374_at) / Fold change /veh KIR2DL2 /// KIR2DL4 /// KIR2DL5A /// KIR2DL5B /// KIR2DS1 /// KIR2DS2 /// KIR2DS3 /// KIR2DS4 /// KIR3DL3 /// KIR3DL3 /// KIR3DS1 (11738374_at) / RFU C1QL1 (11718748_at) / Fold change /veh C1QL1 (11718748_at) / RFU TMPRSS4 (11747572_a_at) / Fold change /veh TMPRSS4 (11747572_a_at) / RFU HAMP (11756126_x_at) / Fold change /veh HAMP (11756126_x_at) / RFU RNFT2 (11725882_a_at) / Fold change /veh RNFT2 (11725882_a_at) / RFU NR4A2 (11747474_a_at) / Fold change /veh NR4A2 (11747474_a_at) / RFU ABCC12 (11746883_a_at) / Fold change /veh ABCC12 (11746883_a_at) / RFU TMEM136 (11760407_x_at) / Fold change /veh TMEM136 (11760407_x_at) / RFU CLDN22 /// WWC2 (11732394_at) / Fold change /veh CLDN22 /// WWC2 (11732394_at) / RFU HLA-DPB1 (11760878_x_at) / Fold change /veh HLA-DPB1 (11760878_x_at) / RFU SPINT1 (11716480_a_at) / Fold change /veh SPINT1 (11716480_a_at) / RFU GAP43 (11754022_s_at) / Fold change /veh GAP43 (11754022_s_at) / RFU A4GNT (11735810_at) / Fold change /veh A4GNT (11735810_at) / RFU PRB3 (11715151_x_at) / Fold change /veh PRB3 (11715151_x_at) / RFU TUBB4B (11761932_at) / Fold change /veh TUBB4B (11761932_at) / RFU CAPN14 (11732068_a_at) / Fold change /veh CAPN14 (11732068_a_at) / RFU TMCC2 (11721928_a_at) / Fold change /veh TMCC2 (11721928_a_at) / RFU IRGQ (11745062_a_at) / Fold change /veh IRGQ (11745062_a_at) / RFU FAM174B (11720279_a_at) / Fold change /veh FAM174B (11720279_a_at) / RFU TMPRSS4 (11748680_a_at) / Fold change /veh TMPRSS4 (11748680_a_at) / RFU FAM212B (11763350_a_at) / Fold change /veh FAM212B (11763350_a_at) / RFU PLEKHG5 (11743358_a_at) / Fold change /veh PLEKHG5 (11743358_a_at) / RFU ZSCAN30 (11745921_a_at) / Fold change /veh ZSCAN30 (11745921_a_at) / RFU CMKLR1 (11741424_a_at) / Fold change /veh CMKLR1 (11741424_a_at) / RFU LOC101060620 /// MAPK8IP1 (11723275_at) / Fold change /veh LOC101060620 /// MAPK8IP1 (11723275_at) / RFU SPTSSB (11747773_x_at) / Fold change /veh SPTSSB (11747773_x_at) / RFU PRSS12 (11739890_at) / Fold change /veh PRSS12 (11739890_at) / RFU BIN1 (11741810_x_at) / Fold change /veh BIN1 (11741810_x_at) / RFU WNT11 (11732464_a_at) / Fold change /veh WNT11 (11732464_a_at) / RFU C10orf10 (11716521_a_at) / Fold change /veh C10orf10 (11716521_a_at) / RFU C5orf56 (11738089_at) / Fold change /veh C5orf56 (11738089_at) / RFU CYB561 (11721691_x_at) / Fold change /veh CYB561 (11721691_x_at) / RFU ANKRD19P (11752326_a_at) / Fold change /veh ANKRD19P (11752326_a_at) / RFU OR2T12 /// OR2T33 /// OR2T8 (11738714_s_at) / Fold change /veh OR2T12 /// OR2T33 /// OR2T8 (11738714_s_at) / RFU VCAN (11748164_a_at) / Fold change /veh VCAN (11748164_a_at) / RFU JSRP1 (11732532_at) / Fold change /veh JSRP1 (11732532_at) / RFU KRTAP10-11 (11738290_x_at) / Fold change /veh KRTAP10-11 (11738290_x_at) / RFU MYO3A (11730013_a_at) / Fold change /veh MYO3A (11730013_a_at) / RFU EBF3 (11725865_a_at) / Fold change /veh EBF3 (11725865_a_at) / RFU CAMK2N1 (11719241_x_at) / Fold change /veh CAMK2N1 (11719241_x_at) / RFU C5orf56 (11738088_a_at) / Fold change /veh C5orf56 (11738088_a_at) / RFU OLFML3 (11715873_a_at) / Fold change /veh OLFML3 (11715873_a_at) / RFU LOC100653217 /// NTM (11731650_a_at) / Fold change /veh LOC100653217 /// NTM (11731650_a_at) / RFU MAPK11 (11762145_a_at) / Fold change /veh MAPK11 (11762145_a_at) / RFU FIZ1 (11724087_x_at) / Fold change /veh FIZ1 (11724087_x_at) / RFU OASL (11726364_x_at) / Fold change /veh OASL (11726364_x_at) / RFU SOX15 (11748057_x_at) / Fold change /veh SOX15 (11748057_x_at) / RFU CD79A (11719716_a_at) / Fold change /veh CD79A (11719716_a_at) / RFU HIST1H1D (11736915_at) / Fold change /veh HIST1H1D (11736915_at) / RFU CASKIN2 (11723855_a_at) / Fold change /veh CASKIN2 (11723855_a_at) / RFU LOC730098 (11760151_x_at) / Fold change /veh LOC730098 (11760151_x_at) / RFU OR4N2 (11742367_at) / Fold change /veh OR4N2 (11742367_at) / RFU PRRT2 (11749266_a_at) / Fold change /veh PRRT2 (11749266_a_at) / RFU SNX32 (11753110_a_at) / Fold change /veh SNX32 (11753110_a_at) / RFU CDHR5 (11726645_a_at) / Fold change /veh CDHR5 (11726645_a_at) / RFU RCAN1 (11760418_a_at) / Fold change /veh RCAN1 (11760418_a_at) / RFU FAM167A (11723789_a_at) / Fold change /veh FAM167A (11723789_a_at) / RFU FAM26E (11764081_at) / Fold change /veh FAM26E (11764081_at) / RFU ISYNA1 (11749810_s_at) / Fold change /veh ISYNA1 (11749810_s_at) / RFU ACY1 (11761880_at) / Fold change /veh ACY1 (11761880_at) / RFU 11764098_at / Fold change /veh 11764098_at / RFU SAMD14 (11745864_x_at) / Fold change /veh SAMD14 (11745864_x_at) / RFU NPB (11741838_a_at) / Fold change /veh NPB (11741838_a_at) / RFU TMPRSS6 (11731388_a_at) / Fold change /veh TMPRSS6 (11731388_a_at) / RFU KRTAP10-2 (11738614_at) / Fold change /veh KRTAP10-2 (11738614_at) / RFU ARHGAP8 /// PRR5-ARHGAP8 (11727945_x_at) / Fold change /veh ARHGAP8 /// PRR5-ARHGAP8 (11727945_x_at) / RFU KRTAP5-7 /// NADSYN1 (11734609_at) / Fold change /veh KRTAP5-7 /// NADSYN1 (11734609_at) / RFU RASL12 (11751679_a_at) / Fold change /veh RASL12 (11751679_a_at) / RFU CDKN2B (11736163_a_at) / Fold change /veh CDKN2B (11736163_a_at) / RFU PRF1 (11729649_at) / Fold change /veh PRF1 (11729649_at) / RFU, ZNF638 /// ZNF638-IT1 / Fold change vs veh, ZNF638 /// ZNF638-IT1 / RFU, PANK3 / Fold change vs veh, PANK3 / RFU, SH3YL1 / Fold change vs veh, SH3YL1 / RFU, ZEB2 / Fold change vs veh, ZEB2 / RFU, NRIP1 / Fold change vs veh, NRIP1 / RFU, PTTG1IP / Fold change vs veh, PTTG1IP / RFU, CAPN2 / Fold change vs veh, CAPN2 / RFU, MED14 / Fold change vs veh, MED14 / RFU, SNORA58 / Fold change vs veh, SNORA58 / RFU, C1orf63 / Fold change vs veh, C1orf63 / RFU, LRRFIP1 / Fold change vs veh, LRRFIP1 / RFU, NDUFAF7 / Fold change vs veh, NDUFAF7 / RFU, SLC12A2 / Fold change vs veh, SLC12A2 / RFU, IBTK / Fold change vs veh, IBTK / RFU, ESF1 / Fold change vs veh, ESF1 / Fold change vs veh, TMEM50B / RFU, TAOK1 / Fold change vs veh, TAOK1 / RFU, ACBD3 / Fold change vs veh, ACBD3 / RFU, TMA16 / Fold change vs veh, TMA16 / RFU, RWDD3 / Fold change vs veh, RWDD3 / RFU, BCAT1 / Fold change vs veh, BCAT1 / RFU, EDEM3 / Fold change vs veh, EDEM3 / RFU, TMEM33 / Fold change vs veh, TMEM33 / RFU, WDR75 / Fold change vs veh, WDR75 / RFU, AHCTF1 / Fold change vs veh, AHCTF1 / RFU, TFRC / Fold change vs veh, TFRC / RFU, ZDHHC17 / Fold change vs veh, ZDHHC17 / RFU, NOM1 / Fold change vs veh, NOM1 / RFU, ARL8B / Fold change vs veh, ARL8B / RFU, ZBTB11 / Fold change vs veh, ZBTB11 / RFU, TAMM41 / Fold change vs veh, TAMM41 / RFU, KIAA1704 /// LOC100996395 / Fold change vs veh, KIAA1704 /// LOC100996395 / RFU, ING1 / Fold change vs veh, ING1 / RFU, TRMT61B / Fold change vs veh, TRMT61B / RFU, FUBP3 / Fold change vs veh, FUBP3 / RFU, TP53 / Fold change vs veh, TP53 / RFU, TNKS2 / Fold change vs veh, TNKS2 / RFU, ZFP14 / Fold change vs veh, ZFP14 / RFU, ACTR2 / Fold change vs veh, ACTR2 / RFU, PPP3R1 / Fold change vs veh, PPP3R1 / RFU, PIK3R1 / Fold change vs veh, PIK3R1 / RFU, HNRNPA1 / Fold change vs veh, HNRNPA1 / RFU, RNF170 / Fold change vs veh, RNF170 / RFU, ZNF28 / Fold change vs veh, ZNF28 / RFU, RNGTT / Fold change vs veh, RNGTT / RFU, OGT / Fold change vs veh, OGT / RFU, BRD1 / Fold change vs veh, BRD1 / RFU, MARS / Fold change vs veh, MARS / RFU, ZNF655 / Fold change vs veh, ZNF655 / RFU, FAHD1 / Fold change vs veh, FAHD1 / RFU, BDP1 / Fold change vs veh, BDP1 / RFU, LRRCC1 / Fold change vs veh, LRRCC1 / RFU, ARID1A / Fold change vs veh, ARID1A / RFU, ZNF146 / Fold change vs veh, ZNF146 / RFU, ZNF330 / Fold change vs veh, ZNF330 / RFU, GPN3 / Fold change vs veh, GPN3 / RFU, C9orf123 / Fold change vs veh, C9orf123 / RFU, N4BP2L2 / Fold change vs veh, N4BP2L2 / RFU, ARFIP1 / Fold change vs veh, ARFIP1 / RFU, FAM179B / Fold change vs veh, FAM179B / RFU, BCL10 / Fold change vs veh, BCL10 / RFU, UHRF1BP1L / Fold change vs veh, UHRF1BP1L / RFU, BET1 / Fold change vs veh, BET1 / RFU, CNOT2 / Fold change vs veh, CNOT2 / RFU, ZNF268 / Fold change vs veh, ZNF268 / Fold change vs veh, ZNF507 / RFU, DGCR2 / Fold change vs veh, DGCR2 / RFU, WDSUB1 / Fold change vs veh, WDSUB1 / Fold change vs veh, HSP90B1 /// MIR3652 / RFU, ADSS / Fold change vs veh, ADSS / RFU, GK / Fold change vs veh, GK / RFU, ZNF148 / Fold change vs veh, ZNF148 / RFU, TAF9 / Fold change vs veh, TAF9 / RFU, SLC1A5 / Fold change vs veh, SLC1A5 / RFU, SLMO2 / Fold change vs veh, SLMO2 / RFU, ABCC4 / Fold change vs veh, ABCC4 / RFU, LOC101060439 /// RAP1B / Fold change vs veh, LOC101060439 /// RAP1B / RFU, RFX7 / Fold change vs veh, RFX7 / RFU, GTPBP10 / Fold change vs veh, GTPBP10 / RFU, CNEP1R1 / Fold change vs veh, CNEP1R1 / RFU, BIVM-ERCC5 /// ERCC5 / Fold change vs veh, BIVM-ERCC5 /// ERCC5 / RFU, ILF3 / Fold change vs veh, ILF3 / RFU 11762660_at / Fold change /veh 11762660_at / RFU VCAN (11757783_s_at) / Fold change /veh VCAN (11757783_s_at) / RFU DDX43 (11728927_at) / Fold change /veh DDX43 (11728927_at) / RFU KRT8 (11758188_x_at) / Fold change /veh KRT8 (11758188_x_at) / RFU NKD1 (11759106_at) / Fold change /veh NKD1 (11759106_at) / RFU SRD5A1 (11742802_a_at) / Fold change /veh SRD5A1 (11742802_a_at) / RFU TPSAB1 /// TPSB2 (11721975_s_at) / Fold change /veh TPSAB1 /// TPSB2 (11721975_s_at) / RFU GSTM3 (11746129_a_at) / Fold change /veh GSTM3 (11746129_a_at) / RFU IL23R (11737362_x_at) / Fold change /veh IL23R (11737362_x_at) / RFU TMEM51 (11727254_a_at) / Fold change /veh TMEM51 (11727254_a_at) / RFU PIWIL2 (11732686_x_at) / Fold change /veh PIWIL2 (11732686_x_at) / RFU ORM1 (11744905_x_at) / Fold change /veh ORM1 (11744905_x_at) / RFU CCDC152 (11743942_at) / Fold change /veh CCDC152 (11743942_at) / RFU ECM1 (11717891_a_at) / Fold change /veh ECM1 (11717891_a_at) / RFU IL23R (11748794_a_at) / Fold change /veh IL23R (11748794_a_at) / RFU TNFAIP8L3 (11732012_x_at) / Fold change /veh TNFAIP8L3 (11732012_x_at) / RFU MBOAT4 (11741988_at) / Fold change /veh MBOAT4 (11741988_at) / RFU 11764193_at / Fold change /veh 11764193_at / RFU TMEM53 (11763286_at) / Fold change /veh TMEM53 (11763286_at) / RFU MAGEB2 (11727129_at) / Fold change /veh MAGEB2 (11727129_at) / RFU TMEM200A (11744735_a_at) / Fold change /veh TMEM200A (11744735_a_at) / RFU CCDC152 (11751479_a_at) / Fold change /veh CCDC152 (11751479_a_at) / RFU FAM211A (11726209_a_at) / Fold change /veh FAM211A (11726209_a_at) / RFU RGS16 (11746705_a_at) / Fold change /veh RGS16 (11746705_a_at) / RFU VCAN (11755009_s_at) / Fold change /veh VCAN (11755009_s_at) / RFU RHOB (11743442_s_at) / Fold change /veh RHOB (11743442_s_at) / RFU RGS16 (11720943_a_at) / Fold change /veh RGS16 (11720943_a_at) / RFU RGS16 (11720944_at) / Fold change /veh RGS16 (11720944_at) / RFU, VPS4B / Fold change vs veh, VPS4B / RFU, CREB1 / Fold change vs veh, CREB1 / RFU, DNAJC13 / Fold change vs veh, DNAJC13 / RFU, GNAQ / Fold change vs veh, GNAQ / RFU, CDK5R1 / Fold change vs veh, CDK5R1 / RFU, ZRANB3 / Fold change vs veh, ZRANB3 / RFU, CUL4A / Fold change vs veh, CUL4A / RFU, CCNY / Fold change vs veh, CCNY / RFU, UFL1 / Fold change vs veh, UFL1 / RFU, COG3 / Fold change vs veh, COG3 / RFU, DIAPH2 / Fold change vs veh, DIAPH2 / RFU, SKA2 / Fold change vs veh, SKA2 / RFU, AFF3 / Fold change vs veh, AFF3 / RFU, LMF1 / Fold change vs veh, LMF1 / RFU, IPO11 / Fold change vs veh, IPO11 / RFU, DFFB / Fold change vs veh, DFFB / RFU, FOXP1 / Fold change vs veh, FOXP1 / RFU, CARD8 / Fold change vs veh, CARD8 / RFU, STRN3 / Fold change vs veh, STRN3 / RFU, ADK / Fold change vs veh, ADK / RFU, RASSF2 / Fold change vs veh, RASSF2 / RFU, WIPF1 / Fold change vs veh, WIPF1 / RFU, LARP1B / Fold change vs veh, LARP1B / RFU, RASA1 / Fold change vs veh, RASA1 / RFU, RB1 / Fold change vs veh, RB1 / RFU, PPFIA1 / Fold change vs veh, PPFIA1 / RFU, MAT2A / Fold change vs veh, MAT2A / RFU, CCT5 / Fold change vs veh, CCT5 / RFU, WDR92 / Fold change vs veh, WDR92 / RFU, CUX1 / Fold change vs veh, CUX1 / RFU, TTC7A / Fold change vs veh, TTC7A / RFU, TMEM135 / Fold change vs veh, TMEM135 / RFU, DEPTOR / Fold change vs veh, DEPTOR / RFU, CPM / Fold change vs veh, CPM / RFU, DNAJB6 / Fold change vs veh, DNAJB6 / RFU, CACNA2D3 / Fold change vs veh, CACNA2D3 / RFU, DTX4 / Fold change vs veh, DTX4 / RFU, TFCP2 / Fold change vs veh, TFCP2 / RFU, GMCL1 /// GMCL1P1 / Fold change vs veh, GMCL1 /// GMCL1P1 / RFU, AEBP2 / Fold change vs veh, AEBP2 / RFU, SNHG1 /// SNORD22 /// SNORD25 /// SNORD26 /// SNORD27 /// SNORD28 /// SNORD29 /// SNORD31 / Fold change vs veh, SNHG1 /// SNORD22 /// SNORD25 /// SNORD26 /// SNORD27 /// SNORD28 /// SNORD29 /// SNORD31 / Fold change (Aza/veh), C12orf56 (ProbeSet 11735607_a_at) / Fold change (ACY-1035/veh), C12orf56 (ProbeSet 11735607_a_at) / Fold change (Aza/veh), FGFR1OP (ProbeSet 11751329_s_at) / Fold change (ACY-1035/veh), FGFR1OP (ProbeSet 11751329_s_at) / Fold change (Aza/veh), VPS36 (ProbeSet 11739960_a_at) / Fold change (ACY-1035/veh), VPS36 (ProbeSet 11739960_a_at) / RFU SYPL1 (11715823_x_at) / Fold change /veh SYPL1 (11715823_x_at) / RFU IGFBP7 (11715501_s_at) / Fold change /veh IGFBP7 (11715501_s_at) / RFU REEP3 (11722064_at) / Fold change /veh REEP3 (11722064_at) / RFU IGLL1 (11728026_x_at) / Fold change /veh IGLL1 (11728026_x_at): dose or concentration left out as unconfirmed
Conditions: MV-4-11 cells, 48 hours

With `Nc1ncn([C@@H]2O[C@H](CO)[C@@H](O)[C@H]2O)c(=O)n1` [azacitidine] the “RFU KRT8 (11758188_x_at)” value was 23.78 RFU.
